Experimental data as given in patent US20240158392A1 (Janssen Biotech, Inc., priority 2021, published 2024).

target: SIK2 (Homo sapiens, UniProt Q9H0K1); assay: SIK2 Enzymatic Assay High Version 2 (High ATP); type: biochemical; conditions: not given
Outline: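 At room temperature, enzyme (6 nM, 2× final) was preincubated with compound for 30 min, then 6 mM ATP and 400 μM HDAC5tide (both 2× final) were added for 2 h. ADP formed was measured by ADP-Glo Max (2 h reagent, 1 h detection) using luminescence.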

Sequence of SIK2 (Q9H0K1 whole entry, species assumed): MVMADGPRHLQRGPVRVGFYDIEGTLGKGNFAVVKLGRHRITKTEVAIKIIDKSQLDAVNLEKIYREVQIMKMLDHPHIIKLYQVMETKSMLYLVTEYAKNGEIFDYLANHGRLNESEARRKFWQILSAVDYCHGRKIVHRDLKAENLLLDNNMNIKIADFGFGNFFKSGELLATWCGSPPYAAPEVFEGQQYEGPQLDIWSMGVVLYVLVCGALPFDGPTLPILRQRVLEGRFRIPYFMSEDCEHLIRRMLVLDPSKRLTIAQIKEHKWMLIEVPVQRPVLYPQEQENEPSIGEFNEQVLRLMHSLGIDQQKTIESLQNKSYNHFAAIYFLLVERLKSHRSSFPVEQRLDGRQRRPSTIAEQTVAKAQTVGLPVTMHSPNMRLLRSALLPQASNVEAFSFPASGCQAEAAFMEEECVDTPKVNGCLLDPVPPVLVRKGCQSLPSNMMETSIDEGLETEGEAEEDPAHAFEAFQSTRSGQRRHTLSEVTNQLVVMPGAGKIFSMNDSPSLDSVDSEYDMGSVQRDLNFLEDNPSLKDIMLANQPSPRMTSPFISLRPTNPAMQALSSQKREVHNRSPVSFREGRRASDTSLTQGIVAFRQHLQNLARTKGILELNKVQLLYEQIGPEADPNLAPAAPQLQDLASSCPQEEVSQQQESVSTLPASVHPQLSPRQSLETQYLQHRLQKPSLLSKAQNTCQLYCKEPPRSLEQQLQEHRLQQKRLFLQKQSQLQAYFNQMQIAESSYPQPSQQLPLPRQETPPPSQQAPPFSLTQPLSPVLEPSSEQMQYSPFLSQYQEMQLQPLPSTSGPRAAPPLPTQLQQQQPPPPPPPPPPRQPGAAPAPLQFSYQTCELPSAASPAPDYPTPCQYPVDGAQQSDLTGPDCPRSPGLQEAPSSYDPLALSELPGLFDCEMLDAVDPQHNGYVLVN

Row | Compound | IC50
1 | Cc1cnc(Nc2cc3cc(-c4cc(C)ncc4O[C@H]4C[C@H]5COC[C@@H](C4)N5C)ccn3n2)cn1 [Example 416, 5-[2-methyl-5-[[(1S,5R,7s)-9-methyl-3-oxa-9-azabicyclo[3.3.1]nonan-7-yl]oxy]-4-pyridyl]-N-(5-methylpyrazin-2-yl)pyrazolo[1,5-a]pyridin-2-amine] | < 0.000847 µM
2 | Cc1cc(-c2ccn3nc(NC(=O)C4CC4)cc3c2)c(OC[C@H]2CCN2C2CC2)cn1 [Example 574, N-[5-[5-[[(2R)-1-cyclopropylazetidin-2-yl]methoxy]-2-methyl-4-pyridyl]pyrazolo[1,5-a]pyridin-2-yl]cyclopropanecarboxamide] | 0.0804 µM

same assay, conditions: enzyme 6 nM, 6 mM ATP and 400 μM HDAC5tide (each 2× final concentration); 30 minutes pre-incubation, 2 hours; ADP-Glo Max luminescence; read-out: SIK2 high ATP IC50 (μM) (Test Example 2)

Row | Compound | IC50
3 | Cc1cc(-c2ccn3nc(Nc4cc(C)c(=O)n(CCOC(F)F)n4)cc3c2)c(OC[C@H]2OCC[C@@H]2O)cn1 [Example 296, 2-[2-(difluoromethoxy)ethyl]-6-[[5-[5-[[(2R,3S)-3-hydroxytetrahydrofuran-2-yl]methoxy]-2-methyl-4-pyridyl]pyrazolo[1,5-a]pyridin-2-yl]amino]-4-methyl-pyridazin-3-one] | 0.00698 µM
4 | Cc1cc(-c2ccn3nc(NC(=O)C4CC4)cc3c2)c(OC[C@@]2(F)CCNC2)cn1 (single isomer, unassigned) [Example 447, (*R)—N-[5-[5-[(3-fluoropyrrolidin-3-yl)methoxy]-2-methyl-4-pyridyl]pyrazolo[1,5-a]pyridin-2-yl]cyclopropanecarboxamide] | 0.0246 µM
5 | Cc1cc(-c2ccn3nc(Nc4cc(C)nc(C)n4)cc3c2)c(OCC2CC(=O)N(C)C2)cn1 (racemic) [Example 542, (rac-)-4-[[4-[2-[(2,6-dimethylpyrimidin-4-yl)amino]pyrazolo[1,5-a]pyridin-5-yl]-6-methyl-3-pyridyl]oxymethyl]-1-methyl-pyrrolidin-2-one] | 0.0425 µM
6 | Cc1cc(-c2ccn3nc(Nc4cc(C)c(=O)n(C)n4)cc3c2)c(O[C@H]2CC[C@@H](S(C)(=O)=O)CC2)cn1 [Example 305, 2,4-dimethyl-6-((5-(2-methyl-5-(((1s,4s)-4-(methylsulfonyl)cyclohexyl)oxy)pyridin-4-yl)pyrazolo[1,5-a]pyridin-2-yl)amino)pyridazin-3(2H)-one] | 0.00117 µM
7 | Cc1cc(-c2ccn3nc(Nc4cc(C)nc(N5CCOCC5)n4)cc3c2)c(O[C@H]2CC[C@H](O)CC2)cn1 [Example 288, 4-[[6-methyl-4-[2-[(6-methyl-2-morpholino-pyrimidin-4-yl)amino]pyrazolo[1,5-a]pyridin-5-yl]-3-pyridyl]oxy]cyclohexanol] | 0.00696 µM
8 | Cc1cc(-c2ccn3nc(NC(=O)C4CC4)cc3c2)c(OCC(C)(N)C(F)(F)F)cn1 (single isomer, unassigned) [Example 160, (*S)—N-[5-[5-(2-amino-3,3,3-trifluoro-2-methyl-propoxy)-2-methyl-4-pyridyl]pyrazolo[1,5-a]pyridin-2-yl]cyclopropanecarboxamide] | 0.0444 µM
9 | Cc1cc(-c2ccn3nc(Nc4cc(C)nc(C)n4)cc3c2)c(OC[C@@](C)(N)C(F)(F)F)cn1 (single isomer, unassigned) [Example 270, (*R)-5-[5-(2-Amino-3,3,3-trifluoro-2-methyl-propoxy)-2-methyl-4-pyridyl]-N-(2,6-dimethylpyrimidin-4-yl)pyrazolo[1,5-a]pyridin-2-amine] | 0.0193 µM
10 | COc1cc(Nc2cc3cc(-c4cc(C)ncc4O[C@H]4CC[C@H](O)CC4)ccn3n2)cc(OC(F)F)c1C(=O)NC1CC1 [Example 333, N-cyclopropyl-2-(difluoromethoxy)-4-[[5-[5-(4-hydroxycyclohexoxy)-2-methyl-4-pyridyl]pyrazolo[1,5-a]pyridin-2-yl]amino]-6-methoxy-benzamide] | 0.0448 µM
11 | Cc1cc(-c2ccn3nc(Nc4cnccn4)cc3c2)c(OC[C@H]2CNCCO2)cn1 [Example 430, 5-[2-methyl-5-[[(2R)-morpholin-2-yl]methoxy]-4-pyridyl]-N-pyrazin-2-yl-pyrazolo[1,5-a]pyridin-2-amine] | 0.00801 µM
